As usually defined, the IC50 is the concentration at which inhibition is half-maximal. Low readings indicate inhibition by little substance, high ones a need for much substance.

The target in this test is Acetylcholinesterase (Homo sapiens, UniProt P22303). The test is described as follows: AChE Inhibition Assay. The following applies: pH 7.4; 37 °C. How it is done: The reaction was carried out at 37°C in 70 mM phosphate buffer (Na2HPO4/NaH2PO4, pH 7.4) containing the enzyme (20 μl volume, diluted 100 times in phosphate buffer, pH 7.4), DTNB (5,5-dithiobis(2-nitrobenzoic acid)) (10−4M concentration) and ATCh (1.35 × 10−4M concentration). The absorbance change at 37°C was monitored with the spectrophotometer at 412 nm for 3 min. and three replicates were run in each experiment.
Sequence of Acetylcholinesterase (P22303 whole entry): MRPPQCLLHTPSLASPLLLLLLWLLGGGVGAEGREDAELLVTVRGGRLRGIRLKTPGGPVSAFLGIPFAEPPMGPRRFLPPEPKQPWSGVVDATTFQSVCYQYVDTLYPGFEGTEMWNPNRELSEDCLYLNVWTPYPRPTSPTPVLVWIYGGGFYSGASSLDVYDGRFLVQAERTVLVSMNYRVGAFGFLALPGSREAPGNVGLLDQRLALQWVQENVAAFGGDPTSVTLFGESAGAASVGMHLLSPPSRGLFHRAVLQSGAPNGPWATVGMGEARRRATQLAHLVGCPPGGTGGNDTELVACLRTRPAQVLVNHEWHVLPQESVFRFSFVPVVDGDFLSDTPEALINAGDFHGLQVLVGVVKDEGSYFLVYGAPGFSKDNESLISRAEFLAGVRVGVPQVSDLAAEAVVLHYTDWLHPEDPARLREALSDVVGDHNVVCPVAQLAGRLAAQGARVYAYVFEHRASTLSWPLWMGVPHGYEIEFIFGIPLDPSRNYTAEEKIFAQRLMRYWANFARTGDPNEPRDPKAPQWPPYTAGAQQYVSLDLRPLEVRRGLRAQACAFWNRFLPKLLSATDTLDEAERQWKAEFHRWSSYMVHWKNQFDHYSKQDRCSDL
Compound `O=P(O)(O)CN1CCCN(CP(=O)(O)O)CC1` [Homopiperazine-1,4-bis(methylenephosphonic acid) (11)] yielded an IC50 of 28.7 mM.
In the case of `CCCCC(CC)CN(CP(=O)(O)O)CP(=O)(O)O` (stereo unspecified) [N-2-Ethyl hexyliminobis(methylenephosphonic acid) (6)] it was 9.48 mM; in that of `O=P(O)(O)CN(CCc1ccccc1)CP(=O)(O)O` [N-2-Phenyl ethyliminobis(methylenephosphonic acid) (8)], 11 mM; in that of `O=P(O)(O)CN(Cc1ccccc1)CP(=O)(O)O` [N-Benzyliminobis(methylenephosphonic acid) (7)], 11.9 mM.
Take `O=P(O)(O)CN(CP(=O)(O)O)C1CCCCC1` [N-Cyclohexyliminobis(methylenephosphonic acid) (10)]: the IC50 stood at 9.96 mM.
In the case of `O=P(O)(O)CN(CP(=O)(O)O)C1CCCC1` [N-Cyclopentyliminobis(methylenephosphonic acid) (9)] it was 11.1 mM.
Regarding `CCN(CP(=O)(O)O)CP(=O)(O)O` [N-Ethyliminobis(methylenephosphonic acid) (2)], the IC50 was 22.1 mM.
In the case of `CC(C)N(CP(=O)(O)O)CP(=O)(O)O` [N-Isopropyliminobis(methylenephosphonic acid) (5)] it was 9.11 mM; in that of `CN(CP(=O)(O)O)CP(=O)(O)O` [N-Methyliminobis(methylenephosphonic acid) (1)], 28.1 mM; in that of `CCCCCN(CP(=O)(O)O)CP(=O)(O)O` [N-Pentyliminobis(methylenephosphonic acid) (4)], 11.7 mM.
The figure for `CCCN(CP(=O)(O)O)CP(=O)(O)O` [N-Propyliminobis(methylenephosphonic acid) (3)] is 12.7 mM.

The values above are taken from BindingDB's records for doi:10.3109/14756361003691860 (Tarbiat Modares University, 2010).
